Source: patent publication US20170306409A1, “CANCER PATIENT SELECTION FOR ADMINISTRATION OF WNT SIGNALING INHIBITORS USING RNF43 MUTATION STATUS” (NOVARTIS AG, priority 2012, published 2017)

Tests used:
Format in all cases: cell-based, human
[1] = test system: CFPAC-1; assay: foci formation assay; details: 1 μM LGK974
Protocol: (§1) To assay foci formation, 6,000˜12,000 cells of indicated cell lines were seeded in 6 well tissue culture plate in 2 ml growth media. After overnight culture for cell attachment, media was replaced with fresh growth media containing 1 μM LGK974 in the absence and presence of recombinant Wnt3a. For DOX-inducible β-catenin shRNA experiment, cells were treated 5 ng/ml doxycycline. When cell colonies reached desirable size, cells were fixed with 4% formalin in PBS and stained with crystal violet solution. After a few washes, plates were dried and imaged.
(§2) Identification of pancreatic cancer lines containing inactivation mutation of RNF43. Discovery of LGK974, a potent and selective inhibitor of Porcupine, offered us a unique chemical tool to systemically examine Wnt dependency in a large panel of cancer cell lines. We tested LGK974 in a large panel of pancreatic cancer cell lines using foci formation assay. Foci formation assay was utilized because it is more sensitive than routine growth assays such as CellTiter-Glo, and it is less affected by the different growth rates of various cell lines.

[2] = test system: Capan-1; assay: foci formation assay; details: 1 μM LGK974
Protocol: as §1, §2

[3] = test system: Capan-2; assay: foci formation assay; details: 1 μM LGK974
Protocol: as §1, §2

[4] = test system: DanG; assay: foci formation assay; details: 1 μM LGK974
Protocol: as §1, §2

[5] = test system: HPAFII; assay: foci formation assay; details: 1 μM LGK974
Protocol: as §1, §2

[6] = test system: Hs766T; assay: foci formation assay; details: 1 μM LGK974
Protocol: as §1, §2

[7] = test system: HuPT3; assay: foci formation assay; details: 1 μM LGK974
Protocol: as §1, §2

[8] = test system: HuPT4; assay: foci formation assay; details: 1 μM LGK974
Protocol: as §1, §2

[9] = test system: KCl-MOH1; assay: foci formation assay; details: 1 μM LGK974
Protocol: as §1, §2

[10] = test system: KLM1; assay: foci formation assay; details: 1 μM LGK974
Protocol: as §1, §2

[11] = test system: KP-1NL; assay: foci formation assay; details: 1 μM LGK974
Protocol: as §1, §2

[12] = test system: KP1-N; assay: foci formation assay; details: 1 μM LGK974
Protocol: as §1, §2

[13] = test system: KP3; assay: foci formation assay; details: 1 μM LGK974
Protocol: as §1, §2

[14] = test system: KP4; assay: foci formation assay; details: 1 μM LGK974
Protocol: as §1, §2

[15] = test system: L3.3; assay: foci formation assay; details: 1 μM LGK974
Protocol: as §1, §2

[16] = test system: MIA CaPa-2; assay: foci formation assay; details: 1 μM LGK974
Protocol: as §1, §2

[17] = test system: PANC-1; assay: foci formation assay; details: 1 μM LGK974
Protocol: as §1, §2

[18] = test system: PK1; assay: foci formation assay; details: 1 μM LGK974
Protocol: as §1, §2

[19] = test system: PK59; assay: foci formation assay; details: 1 μM LGK974
Protocol: as §1, §2

[20] = test system: PL45; assay: foci formation assay; details: 1 μM LGK974
Protocol: as §1, §2

[21] = test system: PSN-1; assay: foci formation assay; details: 1 μM LGK974
Protocol: as §1, §2

[22] = test system: PaTu-8902; assay: foci formation assay; details: 1 μM LGK974
Protocol: as §1, §2

[23] = test system: PaTu-8988S; assay: foci formation assay; details: 1 μM LGK974
Protocol: as §1, §2

[24] = test system: PaTu-8988T; assay: foci formation assay; details: 1 μM LGK974
Protocol: as §1, §2

[25] = test system: Pan02.03; assay: foci formation assay; details: 1 μM LGK974
Protocol: as §1, §2

[26] = test system: Panc04.03; assay: foci formation assay; details: 1 μM LGK974
Protocol: as §1, §2

[27] = test system: Panc05.04; assay: foci formation assay; details: 1 μM LGK974
Protocol: as §1, §2

[28] = test system: Panc08.13; assay: foci formation assay; details: 1 μM LGK974
Protocol: as §1, §2

[29] = test system: Panc10.05; assay: foci formation assay; details: 1 μM LGK974
Protocol: as §1, §2

[30] = test system: QGP-1; assay: foci formation assay; details: 1 μM LGK974
Protocol: as §1, §2

[31] = test system: SU86.86; assay: foci formation assay; details: 1 μM LGK974
Protocol: as §1, §2

[32] = test system: SUIT-2; assay: foci formation assay; details: 1 μM LGK974
Protocol: as §1, §2

[33] = test system: SW1990; assay: foci formation assay; details: 1 μM LGK974
Protocol: as §1, §2

[34] = test system: T3M4; assay: foci formation assay; details: 1 μM LGK974
Protocol: as §1, §2

[35] = test system: YAPC; assay: foci formation assay; details: 1 μM LGK974
Protocol: as §1, §2

[36] = test system: STF Wnt reporter, YAPC-STF cells; assay: SuperTOPFlash (STF) luciferase reporter assay; details: absence of exogenous Wnt3a, LGK974 or IWP-2
Protocol: For the luciferase reporter assay, YAPC-STF reporter cells were transfected with siRNA and treated with Wnt3a conditioned medium or compound where applicable. STF luciferase assays were performed using BrightGlo Luciferase Assay kits (Promega) according to the manufacturer's instructions.
To construct pancreatic cell lines expressing STF reporter, HEK293 cells were grown in medium recommended by ATCC supplemented with 10% FBS. Retrovirus or lentivirus was produced from HEK293 cells by standard virus packaging procedure using FuGENE 6 (Roche) transfection reagent. Pancreatic cell lines expressing STF reporter, RNF43 constructs, or DOX-inducible β-catenin shRNA were generated by viral infection and drug selection.
Depletion of RNF43 induces Dvl phosphorylation and β-catenin stabilization. […] RNF43 siRNA-induced STF activity in the absence of exogenous Wnt3a is inhibited by LGK974 and a previously known Porcupine inhibitor IWP-2. Chen B et al. (2009) Nat. Chem. Biol. 5(2):100-7. See, FIG. 3(b), showing that this activity is dependent on the expression of endogenous Wnt proteins.

## Cc1cc(-c2ncc(CC(=O)Nc3ccc(-c4cnccn4)cn3)cc2C)ccn1 [LGK974, 2-[5-methyl-6-(2-methylpyridin-4-yl)pyridin-3-yl]-N-[5-(pyrazin-2-yl)pyridin-2-yl]acetamide]
[1]
  Growth inhibition in foci formation assay: No
[2]
  Growth inhibition in foci formation assay: No
[3]
  Growth inhibition in foci formation assay: strong growth inhibitory activity and strongly inhibited and Yes
[4]
  Growth inhibition in foci formation assay: No
[5]
  Growth inhibition in foci formation assay: strong growth inhibitory activity and strongly inhibited and Yes
[6]
  Growth inhibition in foci formation assay: No
[7]
  Growth inhibition in foci formation assay: No
[8]
  Growth inhibition in foci formation assay: No
[9]
  Growth inhibition in foci formation assay: No
[10]
  Growth inhibition in foci formation assay: No
[11]
  Growth inhibition in foci formation assay: No
[12]
  Growth inhibition in foci formation assay: No
[13]
  Growth inhibition in foci formation assay: No
[14]
  Growth inhibition in foci formation assay: No
[15]
  Growth inhibition in foci formation assay: No
[16]
  Growth inhibition in foci formation assay: No
[17]
  Growth inhibition in foci formation assay: No
[18]
  Growth inhibition in foci formation assay: without significant effect and No
[19]
  Growth inhibition in foci formation assay: No
[20]
  Growth inhibition in foci formation assay: not sensitive and No
[21]
  Growth inhibition in foci formation assay: No
[22]
  Growth inhibition in foci formation assay: No
[23]
  Growth inhibition in foci formation assay: strong growth inhibitory activity and strongly inhibited and Yes
[24]
  Growth inhibition in foci formation assay: not sensitive and No
[25]
  Growth inhibition in foci formation assay: No
[26]
  Growth inhibition in foci formation assay: No
[27]
  Growth inhibition in foci formation assay: No
[28]
  Growth inhibition in foci formation assay: No
[29]
  Growth inhibition in foci formation assay: not sensitive and No
[30]
  Growth inhibition in foci formation assay: No
[31]
  Growth inhibition in foci formation assay: No
[32]
  Growth inhibition in foci formation assay: No
[33]
  Growth inhibition in foci formation assay: No
[34]
  Growth inhibition in foci formation assay: No
[35]
  Growth inhibition in foci formation assay: without significant effect and No
[36]
  RNF43 siRNA-induced STF activity: inhibited
